# Measured values from patent US20060293264A1, “STAT3 decoy oligonucleotides and uses therefor” (priority 2004, published 2006).
# T1: STAT1 (Homo sapiens, UniProt P42224)
# T1 construct: Nuclear protein extracts of PCI-15B cells, prepared according to standard methods, were used for the EMSA; endogenous in cells; host or cells: PCI-15B cells (nuclear extract)
# T1 sequence (P42224 2-750 limits assumed): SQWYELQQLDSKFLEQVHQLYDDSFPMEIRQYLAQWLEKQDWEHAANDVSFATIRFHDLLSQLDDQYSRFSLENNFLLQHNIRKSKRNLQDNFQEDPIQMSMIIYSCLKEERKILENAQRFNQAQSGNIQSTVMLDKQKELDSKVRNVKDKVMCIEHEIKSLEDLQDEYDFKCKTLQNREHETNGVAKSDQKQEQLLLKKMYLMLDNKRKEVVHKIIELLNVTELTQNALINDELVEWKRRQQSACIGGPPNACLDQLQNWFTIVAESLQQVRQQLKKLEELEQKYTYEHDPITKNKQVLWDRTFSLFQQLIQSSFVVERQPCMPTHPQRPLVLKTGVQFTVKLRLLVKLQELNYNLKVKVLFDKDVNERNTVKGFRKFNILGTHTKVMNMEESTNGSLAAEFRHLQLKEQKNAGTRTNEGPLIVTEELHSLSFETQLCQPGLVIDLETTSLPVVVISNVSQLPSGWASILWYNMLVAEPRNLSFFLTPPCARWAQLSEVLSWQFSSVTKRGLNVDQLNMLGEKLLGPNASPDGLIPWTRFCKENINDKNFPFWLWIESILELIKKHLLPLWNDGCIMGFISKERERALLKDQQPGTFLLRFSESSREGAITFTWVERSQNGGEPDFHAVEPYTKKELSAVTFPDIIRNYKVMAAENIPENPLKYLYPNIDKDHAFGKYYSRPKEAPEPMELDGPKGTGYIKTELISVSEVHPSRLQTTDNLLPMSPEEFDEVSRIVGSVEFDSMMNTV
# B1: longer sequence: 5′-AGCTTGTCGACATTTCCCGTAAATCGTCGAG-3′, 3′-…-5′; longer decoy initially examined (nucleic acid, listed as Homo sapiens)
# sense: AGCTTGTCGACATTTCCCGTAAATCGTCGAG
# antisense: CTCGACGATTTACGGGAAATGTCGACAAGCT
# modifications: listed as DNA, chemistry not given here
# notes: longer decoy initially examined
# Assays:
# [1] = test system: PCI-15B cells; experiment: Gossypol dose response, MTT assays and cell counting; assay type: cell-based; settings: 72 h, day 3 after treatment
# Method: In FIG. 7, PCI-15B cells were treated with 0, 0.003, 0.03, 3, and 30 μM gossypol. After 3 days, MTT assays and cell counting experiments were performed. […] Bars indicate standard error. […] The STAT3 decoy will be combined with gossypol to determine the antitumor efficacy of the combination treatment.
# [2] = biological target: T1, STAT1; experiment: EMSA of STAT1 binding to the STAT3 decoy, PCI-15B nuclear extracts; settings: supershift
# Method: FIG. 10 depicts binding of STAT 1 to the STAT3 decoy in an electrophoretic mobility shift assay (EMSA). Nuclear protein extracts of PCI-15B cells, prepared according to standard methods, were used for the EMSA. The specificity of STAT1 or STAT3 binding to the STAT3 decoy was determined by supershifting with STAT1- or STAT3-specific antibodies, or both. The experiment has been repeated more than 3 times.
# [3] = test system: GAS-responsive element; experiment: pGAS-Luc reporter gene assay in UM-22B SCCHN cells; assay type: cell-based; settings: UM-22B pGAS-Luc, 2 μg transfected, 24 hrs, IFN-γ stimulation
# Method: FIG. 9 depicts the inhibition of reporter gene expression from GAS-responsive element in SCCHN cells. An SCCHN cell line, UM-22B, was used to generate a stable cell line expressing a pGAS-Luc reporter gene (pGAS-Luc plasmid carrying 4 repeats of GAS sequence: [NT] ID NO: 31), was obtained from Stratagene, Catalog number: 219091-51). The cells were transfected with 2 μg of the STAT3 decoy or the control mutant decoy. At 24 hrs after transfection, luciferase activity was measured and normalized to the total amount of protein.
# [4] = test system: p53-responsive element; experiment: p53-Luciferase reporter gene assay in UM-22B SCCHN cells; assay type: cell-based; settings: UM-22B p53-Luc, 2 μg transfected, 24 hrs
# Method: FIG. 8 depicts the inhibition of reporter gene expression from a p53-responsive element in SCCHN cells. An SCCHN cell line, UM-22B, was used to generate a stable cell line expressing a p53-Luciferase (p53-Luc) reporter gene (The p53-Luc plasmid carrying 14 repeats of p53 transcription recognition sequence: 5'-[…] ID NO: 30)), was obtained from Stratagene, Catalog number: 219085-51). The cells were transfected with 2 μg of the STAT3 decoy or the control mutant decoy. At 24 hrs after transfection, luciferase (Luc) activity was measured and normalized to the total amount of protein according to standard methods.
# [5] = biological target: T2, STAT3 (Homo sapiens, UniProt P40763); experiment: EMSA of STAT3 decoy and derivative decoys, relative binding to STAT3
# T2 construct: Whole cell extracts were prepared and EMSAs performed on 4% native polyacrylamide gels; endogenous in cells; host or cells: whole cell extracts
# Method: Derivative decoys were identified by electrophoretic mobility shift assay, performed as described herein. Table 1 describes a number of STAT3 decoy derivatives along with their relative binding to STAT3.
# Electrophoretic Mobility Shift Assay (EMSA). Whole cell extracts were prepared and EMSAs performed on 4% native polyacrylamide gels as described (Xi, S., et al. J Biol Chem, 278: 31574-31583, 2003 and Wong, P., etal. Mol Cell Biol, 14. 914-922, 1994). STAT3 activation was evaluated by using binding reactions with 20 μg of extracted protein, and radiolabeled high-affinity serum inducible element (hSIE) duplex oligonucleotide (Wagner et al., EMBO J. 9(13):4477-4484 (1990)). Quantification of the STAT3 signal was performed by scanning the SIF-A band using a Molecular Dynamics Personal Densitometer SI and IMAGEQUANT software. […] For supershift experiments, extracts were preincubated with STAT3 polyclonal antibody (C-20, Santa Cruz Biotechnology). Gel shift bands were quantified by densitometry and the Molecular Analyst software (AlphaDigidoc 1000, Alpha-Innotech) with normalization of each band to the positive control lysate run on that gel as described previously for STAT3 activation determinations (Grandis, J. R. et al. Proc Natl Acad Sci USA, 97: 4227-4232., 2000).
# T2 sequence (P40763 2-770 limits assumed): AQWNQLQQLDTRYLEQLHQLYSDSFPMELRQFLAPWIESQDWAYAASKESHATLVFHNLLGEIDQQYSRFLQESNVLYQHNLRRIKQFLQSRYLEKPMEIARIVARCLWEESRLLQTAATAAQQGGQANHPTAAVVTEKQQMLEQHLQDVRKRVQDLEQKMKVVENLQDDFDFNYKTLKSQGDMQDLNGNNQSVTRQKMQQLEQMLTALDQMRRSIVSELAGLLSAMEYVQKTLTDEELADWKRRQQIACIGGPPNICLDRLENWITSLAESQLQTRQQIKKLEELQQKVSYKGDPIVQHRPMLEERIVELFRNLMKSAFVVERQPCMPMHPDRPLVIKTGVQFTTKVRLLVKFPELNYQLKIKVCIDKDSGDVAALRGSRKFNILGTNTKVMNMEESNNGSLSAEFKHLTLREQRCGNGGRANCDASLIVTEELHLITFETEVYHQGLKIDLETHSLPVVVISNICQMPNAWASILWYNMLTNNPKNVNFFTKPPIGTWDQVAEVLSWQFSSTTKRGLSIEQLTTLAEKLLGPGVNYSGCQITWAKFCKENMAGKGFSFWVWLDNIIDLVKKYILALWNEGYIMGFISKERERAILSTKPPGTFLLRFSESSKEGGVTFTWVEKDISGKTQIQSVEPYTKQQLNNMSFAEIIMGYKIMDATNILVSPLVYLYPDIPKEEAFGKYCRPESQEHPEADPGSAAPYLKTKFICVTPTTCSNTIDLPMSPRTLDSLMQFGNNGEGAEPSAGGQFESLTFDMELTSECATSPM
molecule,measurement,setting,value
"Cc1cc2c(C(C)C)c(O)c(O)c(C=O)c2c(O)c1-c1c(C)cc2c(C(C)C)c(O)c(O)c(C=O)c2c1O [gossypol, 2,2′-bis-(Formyl-1,6,7-trihydroxy-5-isopropyl-3-methylnaphthalene)]",IC50,[1],297 nM
"mutant control decoy: double-stranded oligonucleotide 5′-CATTTCCCTTAAATC-3′, 3′-GTAAAGGGAATTTAG-5′; same sequence as Mutant 3 of Table 1 [reference compound]",binding to STAT1,[2],not
same,reporter gene expression from a GAS-responsive element (STAT1 reporter activity),[3],not
same,p53 reporter activity,[4],not
B1,blocking STAT3 activation,[5],effective
